From patent US6784153B1, “Methods of homing molecules to lung using membrane dipeptidase” (The Burnham Institute, priority 1998, dated 2004)

How the values were obtained:
[1] = test system: C8161 human melanoma cells
MDP [2] = molecular target: T1, MDP (Mus musculus, UniProt P31428); experiment: inhibition of MDP activity (hydrolysis of Gly-D-Phe, fluorimetric); assay type: biochemical, murine; settings: Gly-D-Phe 0.5 mM; extracts from MDP-expressing COS-1 cells
T1 construct: The amplified 1.3 kb murine MDP cDNA was digested with KpnI and XbaI, and inserted into the same sites of the pcDNA3 expression vector; expressed in transfected cells; host or cells: COS-1 cells, pcDNA3 expression vector
T1 sequence (P31428 17-384): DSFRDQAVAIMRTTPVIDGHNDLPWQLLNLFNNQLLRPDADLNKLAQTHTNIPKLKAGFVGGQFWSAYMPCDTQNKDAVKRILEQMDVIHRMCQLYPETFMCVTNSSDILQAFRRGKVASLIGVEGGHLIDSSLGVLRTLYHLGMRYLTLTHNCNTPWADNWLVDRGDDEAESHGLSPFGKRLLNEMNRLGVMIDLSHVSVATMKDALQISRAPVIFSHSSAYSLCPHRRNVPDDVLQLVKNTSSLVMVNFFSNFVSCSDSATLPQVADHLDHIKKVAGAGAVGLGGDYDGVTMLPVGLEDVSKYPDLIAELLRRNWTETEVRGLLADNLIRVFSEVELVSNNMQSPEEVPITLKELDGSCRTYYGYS
Method: […] […] Fluorescence was measured using an fmax fluorescence microplate reader from Molecular Devices (Sunnyvale, Calif.).
(§1) Phage binding to COS-1 cells transfected with MDP was determined as follows. Briefly, 10^7 COS-1 cells were transfected with 10 μg of either the MDP expression vector or the vector alone. After 48 hours, cells were scraped gently from the dish, washed once, and subjected to the phage binding assay or membrane dipeptidase activity assay described above. For the phage binding assay, 5×10^6 cells and 10^10 transducing units (TU) of phage input were used. For measurement of membrane dipeptidase activity, 10^6 cells were lysed in 100 μl of PBS/octylglycoside without protease inhibitors. A 10 μl aliquot of the extract was used to measure MDP activity.
Fluorimetric detection of D-Phe was performed as described above.

MDP [3] = settings: cited from earlier work
lung primary cells = experiment: phage binding assay on lung primary cells; design: species or system mice; settings: 150 μM peptide
Method: Phage binding to primary cells was performed as follows. Briefly, Balb/c mice (Harlan Sprague Dawley) were anesthetized with 0.017 ml/g of Avertin as described in Gardner et al., Lab. […] Under deep anesthesia, mice were perfused through the heart with 10 ml Dulbecco's modified Eagle's medium (DMEM; Irvine Scientific; Santa Ana, Calif.). The lungs, kidneys and brain were then collected, minced, placed in 2 ml of DMEM containing 0.5% BSA (Intergen; Purchase, N.Y.) and 0.5 μg/ml collagenase V (SIGMA) and incubated at 37° C. for 25 minutes. Following collagenase treatment, the tissue was forced through a […] pore cell strainer (Becton Dickinson; Franklin Lake, N.J.). The filtered cells were washed once with 10 ml DMEM supplemented with 10% serum.
For the binding reaction, 10^9 transducing units (TU) of phage were incubated with 5×10^6 cells in 1 ml DMEM supplemented with 10% serum. The binding was performed at 4° C. for 2 hours with gentle agitation. After the binding reaction, the cells were washed four times with 1 ml of DMEM supplemented with 10% serum at room temperature for 5 to 10 minutes each time. The cells were centrifuged, and the cell pellet resuspended in 100 μl of DMEM and transferred to a new tube. […] The bacteria were then diluted in 10 ml of LB culture media supplemented with 0.2 μg/ml tetracycline, and incubated for another 30 minutes at room temperature. Serial dilutions of the bacterial culture were plated on LB plates containing 40 μg/ml tetracycline. Plates were incubated at 37° C. overnight before the colonies were counted (transducing units, TU).

[4] = molecular target: T2, 55 kDa lung vascular surface protein (Mus musculus, UniProt P31428); experiment: peptide affinity chromatography of in vivo biotinylated lung extract; assay type: binding; settings: elution with GFE-1 peptide
T2 construct: from tissue; host or cells: Balb/c mouse lung, in vivo biotinylated, octylglucoside extract
T2 sequence (P31428 17-384): T1 sequence (P31428 17-384)
Method: In vivo biotinylation of endothelial cell surface proteins was performed as previously described in De La Fuente et al., Am. J. Physiol. […] Briefly, Balb/c mice were anesthetized with Avertin and perfused slowly through the heart for 10 to 15 minutes with approximately 15 ml of PBS containing 0.5 mg/ml of sulfo-NHS-LC-biotin (Pierce; Rockford, Ill.). Well perfused lungs or control tissues such as brain were then collected and incubated on ice for 20 minutes. The tissues were then homogenized for preparation of extracts as described further below.
For preparation of extracts, mouse or rat lungs were first minced and then homogenized with a Brinkman homogenizer (Brinkman; Wesbury, N.Y.) in a minimal volume (2.5 ml/g of tissue) of cold PBS containing 100 mM N-octyl-β-D-glucopyranoside (Calbiochem; La Jolla, Calif.) with 1 mM phenylmethylsulfonyl fluoride (PMSF), 20 μg/ml aprotinin and 1 μg/ml leupeptin (PBS/octylglucoside). The homogenized tissue was incubated on ice for 2 hours, and then centrifuged at 12,000×g for 30 minutes to remove cell debris. The pooled supernatants were cleared of any debris prior to affinity chromatogaphy.
All steps were performed at 4° C. […] The matrix contained approximately 2 mg/ml of peptide. […] The extract was applied to the column, and the flow-through re-applied over a period of 90 minutes. The column was then washed with 20 volumes of column buffer. […]

skin [5] = experiment: in vivo homing of phage displaying peptides to skin; design: species or system mice
Method: For in vivo panning of skin, two month old BALB/c nude mice were used to avoid contamination by hair. The mice were injected intravenously with phage as described above and, after perfusion through the heart, the skin was removed in large sections and placed on an ice cold plate with the hypodermis facing up. The skin was scraped with a scalpel to remove mostly hypodermis, which was then processed for phage recovery as described below.
Approximately 250 to 300 individual bacterial colonies containing phage recovered from the various organs or tissues were grown for 16 hr in 5 ml NZY/tet. In some experiments, approximately 1000 individual bacteria containing phage were picked and the phage were amplified in 2 ml of NZY/tet or the entire plate containing phage was scraped, pooled and grown in bulk and processed for injection. Where phage were cultured separately, the cultures were pooled and the phage were injected into mice or rats as described above for a second round of in vivo panning. In some experiments, a third or fourth round of panning was performed. Phage DNA was purified from individual bacterial colonies obtained and the DNA sequences encoding the peptides expressed by selected phage were determined (see Koivunen et al., supra, 1994b).
in After two or three rounds of in vivo panning of mice injected with a cyclic CX3CX3CX3C (SEQ ID NO: 25) phage display library, the peptide sequence CVALCREACGEGC (SEQ ID NO: 3), which appeared repeatedly in skin, was identified (Table 1). To determine the specificity of skin homing of the sequence CVALCREACGEGC (SEQ ID NO: 3), phage displaying the peptide was amplified individually, diluted to the same input titer and administered to mice. Following administration, control kidney and brain organ were removed and the number of TU of phage in skin, kidney and brain was determined.
Peptides that were identified more than one time during screening are indicated by an asterisk. For example, 14% of recovered CX3CX3CX3C (SEQ ID NO: 25) phage that homed to head skin had the sequence CVDVCCDGCPVCC (SEQ ID NO: 437). Phage having the sequence RVPLSGDVEH (SEQ ID NO: 438), LRVMSFTSGQ (SEQ ID NO: 439), or RFSVGSLFGS (SEQ ID NO: 440) each constituted 14% of recovered CX10C (SEQ ID NO: 30) phage that homed to head skin.

murine MDP = molecular target: T3, murine MDP (Mus musculus, UniProt P31428); experiment: phage binding to COS-1 cells transfected with MDP; settings: 5×10^6 COS-1 cells, 10^10 TU phage
T3 construct: The amplified 1.3 kb murine MDP cDNA was digested with KpnI and XbaI, and inserted into the same sites of the pcDNA3 expression vector; expressed in transfected cells; host or cells: COS-1 cells, pcDNA3 expression vector
T3 sequence (P31428 17-384): T1 sequence (P31428 17-384)
Method: The COS-1 cell line, which is known to have low or no detectable level of MDP activity, has been used extensively to study MDP structure and function (Keynan et al., supra, 1996; Keynan et al., Biochem, J. 326:47-51 (1997)). COS-1 cells were trasfected with murine MDP and used to assay binding to SEQ ID NOS: 1 and 2 as described below.
For transfection into COS-1 cells, a murine MDP expression vector was prepared as follows. Total mouse lung RNA was isolated using Qiagen RNA purification columns (Qiagen; Santa Clarita, Calif.) and used as a template for first strand cDNA synthesis with reverse transcriptase and a mixture of random hexamers and poly-dT oligonucleotides (GIBCO/BRL; Grand Island, N.Y.). Mouse MDP cDNA (Pasqualini et al., J. Cell Biol. 130:1189-1196 (1995)) was amplified from the cDNA pool by PCR using the oligonucleotide pair: […] (SEQ ID NO: 446), which contains a KpnI adaptor, and […] (SEQ ID NO: 447), which contains an XbaI adaptor, using Taq polymerase from GIBCO/BRL. The amplified 1.3 kb murine MDP cDNA was digested with KpnI and XbaI, and inserted into the same sites of the pcDNA3 expression vector (Invitrogen; Carlsbad, Calif.) using DNA restriction enzymes and T4 DNA ligase from New England Biolabs (Beverly, Mass.). Successful cloning of the murine MDP cDNA was confirmed by DNA sequencing. Transfection of the COS-1 cells was performed with the Superfect Reagent from Qiagen as recommended by the manufacturer.
as §1

skin [6] = experiment: immunohistologic analysis of skin homing phage; assay type: in vivo, mice
Method: Phage displaying homing peptides were detected in lung, pancreas and skin by immunostaining histologic sections obtained 5 min after administration of phage expressing a lung, pancreas or skin homing peptide (“peptide-phage”) to a mouse. Following administration of the peptide-phage, mice were handled as described above and various organs, including lung, pancreas and skin, were removed and fixed in Bouin's solution (SIGMA). Histologic sections were prepared and reacted with anti-M13 (phage) antibodies (Pharmacia Biotech; see U.S. Pat. No. 5,622,699, supra, 1997; Pasqualini and Ruoslahti, supra, 1996). Visualization of the bound anti-M13 antibody was performed using a second antibody conjugated to peroxidase (SIGMA) according to the manufacturer's instructions.
Experiments were performed in skin using phage displaying the skin homing peptide CVALCREACGEGC (SEQ ID NO: 3). In these experiments, histological samples from the skin as well as control organs and tissues including lung and pancreas were prepared and examined by immunostaining as described above.

**Q.** For O=c1[nH]cc(F)c(=O)[nH]1 [CARAC, reference compound], which “toxicity to the melanoma cells” value [1] is on record?
**A.** Neither the GFE-1 (SEQ ID NO: 1) or CARAC (SEQ ID NO: 443) peptides exhibited toxicity

**Q.** What about the “inhibition of hydrolysis of Gly-D-Phe by MDP” value (MDP [2]) of the same compound?
**A.** did not inhibit the enzyme

**Q.** With CCCCC/C=C(\NC(=O)C1CC1(C)C)C(=O)O (racemic) [Z-2-(2,2 dimethylcyclopropanecarboxamido)-2-octenoic acid] as the compound, how does the “activity of resolved isomers” value (MDP [3]) read?
**A.** Activity resides in the dextrorotatory isomer

**Q.** Which “inhibition of GFE-1 phage binding to lung cells” value (lung primary cells) does the source give for “GRGESP: control peptide [reference compound]” here?
**A.** no effect

**Q.** And the “binding of lung surface protein to peptide affinity column” value [4]?
**A.** No proteins in the 55 kDa range were detected

**Q.** With CVALCREACGEGC [skin homing peptide] as the compound, how does the “% OF MOTIF AMONG ALL CLONES” value (skin [5]; SKIN) read?
**A.** 6%

**Q.** And the skin/brain phage ratio (skin [5]; SKIN section)?
**A.** 7

**Q.** What about the “phage bound to skin than to kidney or brain” value (skin [5]; individually amplified phage) of the same compound?
**A.** 7 ×

**Q.** And the “enriched in skin over unselected phage” value (skin [5]; mouse, in vivo)?
**A.** 7 ×

**Q.** What about the “selectivity for skin over unselected phage and over background in brain and kidney” value (skin [5]; mouse, in vivo) of the same compound?
**A.** 7 fold

**Q.** And the “phage bound to MDP transfected cells than to mock transfected cells” value (murine MDP)?
**A.** no specific binding

**Q.** And the immunostaining of skin (skin [6]; 5 min after phage)?
**A.** staining in blood vessels of the hypodermis

**Q.** And the “staining of lung and pancreas after skin homing phage” value (skin [6]; control tissues)?
**A.** no staining was observed in control the lung and pancreas
